Values of other authors, collected in patent US6419963B1, “Composition and method for the treatment of diaper rash using natural products” (priority 2001, dated 2002).

How the values were obtained:
ethanol-induced ulcers = conditions: rats

Molecule | solubility in water | ethanol-induced ulcers (ethanol-induced ulcers)
[O]=[Zn] [Zinc oxide] | almost totally insoluble | 
CN/C(=N/CCSCc1nc[nH]c1C)NC#N [cimetidine] |  | not affected
Zinc glycerolate | insoluble | 
